Tested on: HeLa cells
Assay: Comet assay (DNA damage), HeLa
Type: cell-based, human
Set-up: Olive Tail Moment (Mean) / Tail Moment (Mean): unit not given here
Settings: for percentage of tail DNA and tail moment: 10 μM, 1, 3, 6, 12 h; for Olive Tail Moment (Mean) / Tail Moment (Mean) / %Tail DNA (Mean): 10 µM; for Olive Tail Moment (Mean): control 5.539; for Tail Moment (Mean): control 9.081; for %Tail DNA (Mean): control 28.414, alkaline electrophoresis, Vista Green
Protocol: The DNA damage assay was performed using a comet assay kit 96-well plate (Cell Bio Labs, CA, USA) as per the manufacturer’s instructions. Briefly, the cell suspension was mixed with the low-melting agarose at 1:20 ratio and added to the pre-coated 96 well plate. The cells were then subjected to lysis for 1 h, followed by alkaline electrophoresis. The plate was then washed in 70% ethanol and Vista Green DNA dye was added. The comets were visualized in Zeiss LSM780 Confocal microscope. The images were processed using Zeiss ZEN lite software and the comet parameters were measured using Open comet software.
Adriamycin is well known to induce DNA damage. Given the critical role of CARP-1 in apoptotic signaling by Adriamycin and CFM compounds, and the fact that stress-activated protein kinases (SAPKs) p38 and JNKs are activated in apoptosis signaling by CFM-4.16 [6, 12, 13, 14, 15, 16, 17, 18], we next determined whether CFM-4.16 also provoked DNA damage. We treated MDA-MB-468 and HeLa cells with a 10 μM dose of Adriamycin or CFM-4.16 for 1, 3, 6, and 12 h, followed by assessment of damaged DNA by the comet assay as described in Section 2. The presence of comet-like tails that contain the fragmented cellular DNA is a well-known marker/indicator of apoptosis. We measured the comet parameters such as percentage tail DNA and mean tail moment. […] Of note is the fact that Adriamycin and related anthracyclines intercalate between DNA bases and trap topoisomerase II (TopoII) in the double-strand cleavage form, thus introducing double-strand breaks (DSBs) due to TopoII poisoning. It remains to be clarified whether CFM-4.16 also targets cellular DNA and/or the associated DNA repair complex protein(s) to introduce DNA strand breaks, or activates caspase-activated DNAses to breakdown cellular genomic DNA.
Figure 2 Adriamycin and CFM-4.16 induce DNA damage. Cells were treated with the noted dose of respective compound for indicated time periods. Mean values for percentage tail DNA content (A,C) and Olive tail moment (B,D) for respective cells from control and treatment periods for each compound were measured using software recommended by the manufacturer of the kit for measurement of DNA damage (Cell Bio Labs, CA, USA). The columns in each chart indicate average values for respective treatment condition; bars, SE; * p ≤ 0.05.
Table S1. Adriamycin and CFM-4.16 stimulate DNA Damage in a time-dependent manner. MDA-MB-468 and HeLa cells were with noted dose of respective compound for indicated time periods.
Mean values for % tail DNA, Tail moment, and Olive tail moment for respective cells from control and treatment periods for each compound were measured using software recommended by the manufacturer of the kit for measurement of DNA damage (Cell Bio Labs, San Diego, CA, USA). The p values for each of the parameter are indicated below the mean values in each column for the treatment time period with each compound for both the cell lines.
Adriamycin (10 µM) CFM-4.16 (10 µM)

Q: With COc1cccc2c1C(=O)c1c(O)c3c(c(O)c1C2=O)C[C@@](O)(C(=O)CO)C[C@@H]3O[C@H]1C[C@H](N)[C@H](O)[C@H](C)O1 [Adriamycin, doxorubicin, reference compound] as the compound, how does the “percentage of tail DNA and tail moment” value read?
A: significantly increased

Q: What about the “Olive Tail Moment (Mean)” value (1 h) of the same compound?
A: 18.8

Q: What about the “Tail Moment (Mean)” value (1 h) of the same compound?
A: 32.09

Q: What about the “%Tail DNA (Mean)” value (1 h) of the same compound?
A: 40.8%

Q: What about the “Olive Tail Moment (Mean)” value (3 h) of the same compound?
A: 39.9

Q: What about the “Tail Moment (Mean)” value (3 h) of the same compound?
A: 61.8

Q: And the “%Tail DNA (Mean)” value (3 h)?
A: 76.74%

Q: What about the “Olive Tail Moment (Mean)” value (6 h) of the same compound?
A: 47.9

Q: What about the “Tail Moment (Mean)” value (6 h) of the same compound?
A: 79.11

Q: And the “%Tail DNA (Mean)” value (6 h)?
A: 84.98%

Q: What about the “Olive Tail Moment (Mean)” value (12 h) of the same compound?
A: 60.49

Q: What about the “Tail Moment (Mean)” value (12 h) of the same compound?
A: 102.2

Q: What about the “%Tail DNA (Mean)” value (12 h) of the same compound?
A: 93.4%

Q: With O=C1N(Cc2ccccc2Cl)c2ccccc2C12NN=C(c1cccc(Cl)c1)S2 (centres unmarked) [CFM-4.16] as the compound, how does the “percentage of tail DNA and tail moment” value read?
A: significantly increased

Q: What about the “Olive Tail Moment (Mean)” value (1 h) of the same compound?
A: 10.9

Q: What about the “Tail Moment (Mean)” value (1 h) of the same compound?
A: 16.526

Q: And the “%Tail DNA (Mean)” value (1 h)?
A: 27.297%

Q: And the “Olive Tail Moment (Mean)” value (3 h)?
A: 15.4

Q: What about the “Tail Moment (Mean)” value (3 h) of the same compound?
A: 26.7

Q: And the “%Tail DNA (Mean)” value (3 h)?
A: 34.45%

Q: What about the “Olive Tail Moment (Mean)” value (6 h) of the same compound?
A: 32.73

Q: And the “Tail Moment (Mean)” value (6 h)?
A: 47.54

Q: And the “%Tail DNA (Mean)” value (6 h)?
A: 53.24%

Q: What about the “Olive Tail Moment (Mean)” value (12 h) of the same compound?
A: 41.02

Q: What about the “Tail Moment (Mean)” value (12 h) of the same compound?
A: 76.03

Q: And the “%Tail DNA (Mean)” value (12 h)?
A: 69.61%
